According to patent publication US4371463A, “Enzyme-resistant opiate pentapeptides” (priority 1977, dated 1983):
Square brackets hold non-standard residues; d marks the D form. Ends that are not written are not given here. Peptide text beside a SMILES is read from it.

Tests used:
opiate receptors = experiment: Opiate receptor affinity by inhibition of stereospecific 3H-naloxone binding to rat brain membranes; settings: for IC50: rat brain membranes, 1 h at 0° C., 100 mM NaCl, 1.3 nM 3H-naloxone, read-out: Opiate Receptor Affinity (concentration causing 50% inhibition of stereospecific 3H-naloxone binding); for opiate receptor affinity, fold greater than the corresponding L-Ala2 isomer: vs L-Ala2-Met-enkephalin-amide
Experimental: Male rats weighing 180-200 g (Sprague-Dawley) were decapitated and each brain with the cerebellum removed was homogenized in 150 mls of ice-cold standard buffer (0.05 M Tris-HCl, pH 7.0 at 25° C.). After refrigerated centrifugation at 12,000×g, the membranes were reconstituted in the standard buffer. After recentrifugation, each brain was suspended in 10 mls of the standard buffer. Aliquots of the freshly prepared membrane preparation (100 μl) were incubated for one hour at 0° C. with various concentrations of the pentapeptide and 100 mM NaCl in a final volume of 0.5 ml with ^3 H-naloxane (New England Nuclear, 34 Ci/mmole) in a concentration of 1.3 nM (20,000 cpm). Incubation was begun with the addition of brain membranes, which were added last. After rapid filtration and washing with two 7 ml portions of ice-cold standard buffer, membrane-laden filters were transferred and counted at 40-45% efficiency at least six hours after shaking with detergent scintillation fluor (Aquasol, New England Nuclear). Control incubations containing levallorphan (100 nM) or dextrallorphan (100 nM) were included. Stereospecific binding (^3 H-naloxone bound in the presence of levallorphan subtracted from binding in the presence of dextrallorphan) represented 85-90% of the total bound naloxane in all experiments. Control values in all experiments ranged between 2000-2800 cpm. From a plot of the percent inhibition of stereospecific ^3 H-naloxane binding as a function of pentapeptide concentration, the opiate receptor affinity of the pentapeptide was determined as that concentration of pentapeptide, in μM, causing 50% inhibition of stereospecific ^3 H-naloxone binding. In this test, the lower the numerical value obtained, the higher is the opiate receptor affinity of the pentapeptide.

rats = experiment: Analgesia after intracerebral microinjection in rats (tail-flick, flinch-jump, limb pinch); assay type: in vivo, rat
Experimental: Sprague-Dawley rats were stereotaxically implanted with chronic indwelling cannulae guides constructed from 23 gauge TW stainless steel tubing and fitted with stilettes of corresponding length. […] Testing was initiated approximately one week following surgery. The compounds being assessed for analgesic activity were dissolved in pyrogen-free water and microinjected at various dose levels in a volume 1 μl through 30 gauge injectors which protruded 2 mm past the guide cannulae tips.
Analgesia was assessed by the D'Amour and Smith "tail-flick" procedure, the "flinch-jump" test, and by subjectively evaluating an animal's reaction to pinches of the limbs with forceps. In the "tail-flick" test, a high intensity light was focused on a rat's tail which had been blackened with a felt-tip pen, and the time that it took an animal to remove its tail from this radiant heat was measured to the nearest 0.5 second. In the "flinch-jump" test, AC shock intensity at which an animal jumped and squealed was quantified 15 minutes after an injection (immediately after testing in the tail-flick test). Reactions to limb pinches were also noted at this time. Baseline measures were always taken approximately one hour prior to injection. All animals were tested at 1, 5, 15, 30, 60, 120, and 180 minutes after injection and then at one hour intervals until their response latencies had recovered to baseline levels.

rat = settings: cited from earlier work; for duration of analgesia: injected directly into active brain sites
[1] = Preincubation with rat brain membranes under physiological conditions at 37° C., then residual opiate receptor inhibitory activity; assay type: in vitro ADME
[2] = tested on: rat brain opiate receptors; settings: cited from earlier work
[3] = 5-10 μg microinjected into rat brain

CSCC[C@H](NC(=O)[C@H](Cc1ccccc1)NC(=O)CNC(=O)[C@@H](Cc1ccccc1)NC(=O)[C@@H](N)Cc1ccc(O)cc1)C(N)=O [D-Phe^2 -Met-enkephalin-amide] (H-Y[dF]GFM-NH2)
IC50 (opiate receptors): 2 µM

CSCC[C@H](NC(=O)[C@H](Cc1ccccc1)NC(=O)CNC(=O)[C@@H](C)NC(=O)[C@@H](N)Cc1ccc(O)cc1)C(N)=O [D-Ala^2 -Met-enkephalin-amide]
IC50 (opiate receptors): 0.4 µM | opiate receptor affinity, fold greater than the corresponding L-Ala2 isomer (opiate receptors): 10 fold | intensity of analgesia compared with 5 μg of morphine (rats; 10 μg microinjected, 1 and 2 hours after injection): not as intense | persistence of analgesia compared with 5 μg of morphine (rats; 10 μg microinjected, rat): about the same length of time | analgesic effects compared with comparable dose levels of morphine (rats; [3]): almost as potent and long-lasting | duration of action (analgesia) (rats; [3]): several hours | analgesia elicited (rats; 5-10 μg microinjected, periaqueductal gray, rat): quite effective in eliciting analgesia | persistence of analgesia after injection (rats; 5-10 μg microinjected, rat): three | effect of naloxone preinjection on analgesia (rats; naloxone 2 mg/kg i.p. 15 minutes before 10 μg microinjection): almost complete reversal of analgesia

CN1CC[C@]23c4c5ccc(O)c4O[C@H]2[C@@H](O)C=C[C@H]3[C@H]1C5 [morphine]
duration of analgesia (rat): several hours

CSCC[C@H](NC(=O)[C@H](Cc1ccccc1)NC(=O)CNC(=O)CNC(=O)[C@@H](N)Cc1ccc(O)cc1)C(=O)O [Met-enkephalin, H-L-Tyr-Gly-Gly-L-Phe-L-Met-OH]
preincubation time after which complete loss of opiate receptor inhibitory activity resulted [1]: 20 min | IC50 (opiate receptors): 0.2 µM | analgesia elicited (rats; 120 μg microinjected, rat): relatively low level of analgesia | time after injection by which analgesia returned to pre-drug level (rats; 120 μg microinjected, rat): ≤ 5 min | affinity for rat brain opiate receptors relative to morphine [2]: about half | duration of analgesia (rat): several minutes | analgesic potency, fold weaker than morphine (rat; rat, in vivo): at least 50 fold

CSCC[C@H](NC(=O)[C@H](Cc1ccccc1)NC(=O)CNC(=O)[C@H](NC(=O)[C@@H](N)Cc1ccc(O)cc1)C(C)C)C(N)=O [D-Val^2 -Met-enkephalin-amide] (H-Y[dV]GFM-NH2)
IC50 (opiate receptors): 4 µM | dose level needed to produce the same analgesic response as 5 μg of D-Ala2-Met-enkephalin-amide (rats; microinjected, rat): 20 µg

CSCC[C@H](NC(=O)[C@H](Cc1ccccc1)NC(=O)CNC(=O)CN(C)C(=O)[C@@H](N)Cc1ccc(O)cc1)C(N)=O [Sar^2 -Met-enkephalin-amide]
IC50 (opiate receptors): 8 µM

YPGFM-NH2 [L-Pro^2 -Met-enkephalin-amide]
IC50 (opiate receptors): 90 µM

CSCC[C@H](NC(=O)[C@H](Cc1ccccc1)NC(=O)CNC(=O)[C@H](C)NC(=O)[C@@H](N)Cc1ccc(O)cc1)C(N)=O [L-Ala^2 -Met-enkephalin-amide, reference compound]
preincubation time after which complete loss of opiate receptor inhibitory activity resulted [1]: 60 min | IC50 (opiate receptors): 4 µM | analgesia elicited (rats; 10 μg microinjected, rat): failed to elicit any significant analgesia

CC(C)C[C@H](NC(=O)[C@H](Cc1ccccc1)NC(=O)CNC(=O)CNC(=O)[C@@H](N)Cc1ccc(O)cc1)C(=O)O [Leu-enkephalin, H-L-Tyr-Gly-Gly-L-Phe-L-Leu-OH, reference compound]
IC50 (opiate receptors): 0.7 µM

CSCC[C@H](NC(=O)[C@H](Cc1ccccc1)NC(=O)CNC(=O)[C@@H](C)NC(=O)[C@@H](N)Cc1ccc(O)cc1)C(=O)O [D-Ala^2 -Met-enkephalin]
IC50 (opiate receptors): 0.4 µM | opiate receptor affinity, fold greater than the corresponding L-Ala2 isomer (opiate receptors): 10 fold | duration of action (analgesia) (rats; [3]): several hours | analgesia results compared with D-Ala2-Met-enkephalin-amide (rats; microinjected, rat): quite similar | analgesic effects compared with comparable dose levels of morphine (rats; rat, in vivo): almost as potent and long-lasting
